{"source": "paper PMC5665643", "about": "“CHIP as a membrane-shuttling proteostasis sensor” (eLife, 2017)", "key": {"PI4KIII": {"test_system": "PI4KIII", "settings": "at higher concentrations; ref Nakanishi et al., 1995; cited from earlier work"}, "[1]": {"test_system": "EGFP-CHIP-K30A; type III phosphatidylinositol-4 kinases (PI4KIII)", "test": "Undocking of EGFP-CHIP-K30A from membranes by PI4KIII inhibitors", "assay_type": "cell-based, murine", "settings": "same cells followed upon addition of inhibitor; ***p<0.001, t-test; N = 3", "excerpt": "Phospholipase D inhibitors FIPI, VU0155069 and CAY10594 were purchased from Caymen Chemicals (Ann Arbor, MI), wortmannin from Enzo (Farmingdale, NY), PI4KIIIβ inhibitor IN-10 from MedChem Express (Monmouth Junction, NJ), HSP70 inhibitor VER-155008 from Sigma-Aldrich (St. Louis, MO), HSP90 inhibitor 17-(Allylamino)−17-demethoxygeldanamycin (17-AAG) from Biomol (Germany). 1,2-dioleoyl-sn-glycero-3-phosphocholine (DOPC) and 1,2-dipalmitoyl-sn-glycero-3-phosphate (phosphatidic acid, PA) were from Avanti Polar Lipids (Alabaster, AL), 1,2-dipalmitoyl-sn-glycero-3-phosphoinositol-4-phosphate (phosphadtidylinositol-4-phosphate, PI4P) was from Echelon Bioscience (Salt Lake City, UT). All other chemicals were from Sigma-Aldrich if not indicated otherwise. […]\nFor microscopy analysis of CHIP localization, samples were not fixed. […] For quantification, fields of view were chosen randomly. […]\nMembrane localization and Golgi morphology were analyzed manually using ImageJ from following numbers of cells (average of at least three independent experiments): 92 (Figure 1a), 142 (Figure 1d), 90 (Figure 1—figure supplement 1b), 125 (Figure 1—figure supplement 1c), 149 (Figure 1—figure supplement 1d), 84 (Figure 3c), 130 (Figure 5a), 206 (Figure 5g), 240 (Figure 5h), 93 (Figure 5—figure supplement 1d), and 137 (Figure 5—figure supplement 1j). […]"}}, "data": [{"molecule": "COC[C@H]1OC(=O)c2coc3c2[C@@]1(C)C1=C(C3=O)[C@@H]2CCC(=O)[C@@]2(C)C[C@H]1OC(C)=O", "note": "[wortmannin]", "values": [{"measurement": "PI4KIII inhibition", "setting": "PI4KIII", "result": "inhibits PI4KIII if used at higher concentrations"}, {"measurement": "undocking of EGFP-CHIP-K30A from cellular membranes, wortmannin", "setting": "[1]", "result": "causes an acute undocking of EGFP-CHIP-K30A from cellular membranes"}]}]}
